Reference: patent US20180264134A1, “A COMPOSITION OF GOLD NANOPARTICLES HAVING ANTIMICROBIAL PEPTIDES BOUND ON THEIR SURFACE FOR USE THE TREATMENT OF WOUND HEALING OR IN THE TREATMENT OF ISCHEMIC OR VASCULAR DISEASES OR IN THE TREATMENT OF SKIN DISORDERS” (priority 2015, published 2018)

System: chorioallantoic membrane (CAM)
Experiment: Chorioallantoic membrane (CAM) assay
Assay type: in vivo
Conditions: CAM vs vehicle
Experimental: In an embodiment, the evaluation of the pro-angiogenic properties of LL37-Au NPs. […] The formation of new blood vessels is a prerequisite of tissue repair and wound healing. Therefore, it was evaluated the inductive properties of LL37 and LL37-Au NPs on human umbilical vein endothelial cells (HUVECs) to secrete vascular endothelial growth factor (VEGF165) (FIG. 14b). […] Next, the assessment of the pro-angiogenic activity of LL37 and LL37-Au NPs in a chorioallantoic membrane (CAM) assay was made.

CC[C@H](C)[C@H](NC(=O)[C@H](CCCCN)NC(=O)[C@H](CCC(=O)O)NC(=O)[C@H](CCCCN)NC(=O)[C@H](CO)NC(=O)[C@H](CCCCN)NC(=O)[C@H](CCCNC(=N)N)NC(=O)[C@H](Cc1ccccc1)NC(=O)[C@H](Cc1ccccc1)NC(=O)[C@H](CC(=O)O)NC(=O)CNC(=O)[C@H](CC(C)C)NC(=O)[C@@H](N)CC(C)C)C(=O)NCC(=O)N[C@@H](CCCCN)C(=O)N[C@@H](CCC(=O)O)C(=O)N[C@@H](Cc1ccccc1)C(=O)N[C@@H](CCCCN)C(=O)N[C@@H](CCCNC(=N)N)C(=O)N[C@H](C(=O)N[C@H](C(=O)N[C@@H](CCC(N)=O)C(=O)N[C@@H](CCCNC(=N)N)C(=O)N[C@H](C(=O)N[C@@H](CCCCN)C(=O)N[C@@H](CC(=O)O)C(=O)N[C@@H](Cc1ccccc1)C(=O)N[C@@H](CC(C)C)C(=O)N[C@@H](CCCNC(=N)N)C(=O)N[C@@H](CC(N)=O)C(=O)N[C@@H](CC(C)C)C(=O)N[C@H](C(=O)N1CCC[C@H]1C(=O)N[C@@H](CCCNC(=N)N)C(=O)N[C@H](C(=O)N[C@@H](CCC(=O)O)C(=O)N[C@@H](CO)C(=O)N[C@@H](CS)C(N)=O)[C@@H](C)O)C(C)C)[C@@H](C)CC)C(C)C)[C@@H](C)CC [LL37]
pro-angiogenic activity (vessel growth): induced vessel growth
